Consider one compound from patent US20040171613A1, “Therapeutic agent for non-immediate type allergic diseases” (JAPAN TOBACCO INC., priority 2001, published 2004).

Data set [1] has as its target T1, CB2 (Homo sapiens, UniProt P34972). As to the kind of experiment: cAMP production in forskolin-stimulated hCB2-expressing CHO cells. The class given is cell-based. The arrangement: expressed in transfected cells; host or cells: CHO cells. In general terms: Cyclic AMP is a second messenger, typically raised through Gs and lowered through Gi signalling.
Target sequence in this assay (P34972 whole entry): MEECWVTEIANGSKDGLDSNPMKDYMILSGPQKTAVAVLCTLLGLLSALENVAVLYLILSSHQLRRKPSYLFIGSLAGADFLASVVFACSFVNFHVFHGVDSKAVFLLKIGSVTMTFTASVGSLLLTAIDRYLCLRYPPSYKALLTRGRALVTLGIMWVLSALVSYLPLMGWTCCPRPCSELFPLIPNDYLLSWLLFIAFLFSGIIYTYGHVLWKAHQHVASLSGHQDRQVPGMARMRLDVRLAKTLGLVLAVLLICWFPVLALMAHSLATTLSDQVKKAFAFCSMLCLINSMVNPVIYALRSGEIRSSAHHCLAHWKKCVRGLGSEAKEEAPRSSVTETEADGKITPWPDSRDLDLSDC
The target of data set [2] is T1, CB2. The arrangement: host or cells: CHO cells expressing CB2. The conditions noted are these: cited from earlier work.
Target sequence in this assay (P34972 whole entry, species assumed): as the sequence (P34972 whole entry) above
Another data set deals with human basophils. As to the kind of experiment: leukotriene production from human basophils. The conditions noted are these: anti-human IgE antibody stimulation; IL-3 preincubation. It counts as cell-based. The protocol: To act them on cells, the solutions were further diluted to 10 μM to 0.01 μM (0.1% DMSO solution).
Using a syringe charged with 3.8% sodium citrate solution, 100 mL blood was obtained from human blood.
Using 10× HBSS (−) (10×Hank's balanced salt solution, GIBCO), Percoll (Amersham) and Milli Q water, 1.070 g/mL, 1.079 g/mL and 1.088 g/mL Percoll-HBSS (−) were prepared and layered, and the obtained blood was loaded on the layers and centrifuged at 300× g for 25 minutes. A cell fraction between the 1.070 g/mL Percoll-HBSS (−) layer and the 1.079 g/mL Percoll-HBSS (−) layer was recovered. 3 volumes of HBSS (−) was added to the recovered cell suspension and centrifuged at 300× g at 4° C. for 7 minutes. After centrifugation, the supernatant was discarded and the cells were rinsed once with HBSS (−). Thus recovered cell population was used as the basophils.
The basophils were prepared to 2.5×10^6 cells/mL with Tyrode solution, and 10 μg/mL recombinant human IL-3 (Genzyme/Techne) was added to a final concentration of 100 ng/mL. Immediately thereafter, 80 μL/well ([…]) of basophils were seeded on a round-bottom 96-well plate and were incubated in 5% CO2 at 37° C. for 30 minutes.
After preincubation, 10 μL/well of the above-described test compound was added and incubated in 5% CO2 at 37° C. for 10 minutes. […]

The test system of data set [3] is rat mast cell line RBL-2H3. As to the kind of experiment: leukotriene production from rat mast cell line. It counts as cell-based. The conditions noted are these: anti-DNP IgE sensitization, DNP-BSA stimulation; 0.1 to 10 μM. The protocol:
Then, the resulting solutions were diluted with E-MEM (EAGLE-MEM; Nikken Biomedical Lab.) to prepare solutions of 100 to 1 μM (1% DMSO solution). To act the solutions on cells, they were further diluted to 10 μM to 0.1 μM (0.1% DMSO solution).
1 mM PIPES (Dojin Molecular Technologies, Inc.), […], 0.5 mM KCl, 0.06 mM MgCl2, 0.1 mM CaCl2, 0.55 mM glucose and 0.1% BSA (bovine serum albumin; Sigma) were prepared with purified water and then adjusted to pH 7.4 using NaOH.
1 mg/mL anti-DNP IgE (monoclonal murine anti-DNP IgE; Yamasa Corp.) was diluted to 1000 fold with the PIPES buffer to prepare a 1 μg/mL solution.
10 mg/mL DNP-BSA was diluted to a concentration of 10 μg/mL with the PIPES buffer.
Culture medium: E-MEM containing heat-inactivated 10% FCS (fetal calf serum; Morgate Biotech), 100 units/mL penicillin and 100 μg/mL streptomycin (in the form of penicillin/streptomycin; GIBCO).
After centrifuging and washing rat mast cell line RBL-2H3 (Human Science; 1×10^6cells/mL/tube) with the above-described culture medium, the cells were resuspended in the culture medium and cultured in a 75-cm^2 flask (Falcon 353136) for 3 days. […]
30 minutes after the antigen stimulation, 20 μL/well supernatant was recovered and the LTs amount was measured according to manufacturer's protocol of LTs EIA kit (Amersham Pharmacia).

For a further data set, the target named is CB1 (Homo sapiens, UniProt P21554). The conditions noted are these: from JP-A 2000-256323, Table 33; cited from earlier work.
Sequence of CB1 (P21554 whole entry, species assumed): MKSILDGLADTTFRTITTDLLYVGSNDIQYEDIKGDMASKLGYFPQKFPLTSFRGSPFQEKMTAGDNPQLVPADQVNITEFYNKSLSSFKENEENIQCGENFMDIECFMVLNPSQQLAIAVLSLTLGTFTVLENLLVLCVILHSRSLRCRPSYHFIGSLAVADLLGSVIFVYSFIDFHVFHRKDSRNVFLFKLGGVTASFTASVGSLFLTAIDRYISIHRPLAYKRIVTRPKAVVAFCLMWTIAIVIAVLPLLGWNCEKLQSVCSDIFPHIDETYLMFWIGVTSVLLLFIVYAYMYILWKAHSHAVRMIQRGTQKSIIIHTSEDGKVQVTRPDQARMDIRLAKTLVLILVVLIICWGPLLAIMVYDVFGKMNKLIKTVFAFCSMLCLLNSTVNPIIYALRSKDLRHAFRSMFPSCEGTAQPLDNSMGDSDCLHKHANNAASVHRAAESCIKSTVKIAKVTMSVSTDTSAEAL
Data set [4] relates to IgE-dependent allergic dermatitis. Kind of data set: murine IgE-dependent allergic dermatitis (triphase ear swelling). It counts as in vivo, mouse. Particulars: oral 10 mg/kg. As to the method:
A model was produced by passive sensitization of a mouse with IgE and repeated antigen challenge to trigger triphase (early phase, late phase and very late phase) dermatitis (Pharmacology, 60(2), 97-104, February 2000). Relation of mast cells and T cells, as well as invasion of eosinophils in local inflammatory sites is confirmed in these reactions.
In addition, as positive controls, similarly to the test compound, 1 mg/mL ketotifen fumarate (Sigma) and 3 mg/mL pranlukast hydrate (extracted from Onon™ (Ono Pharmaceutical Co., Ltd.)) were prepared. Pranlukast hydrate is used as a leukotriene inhibitor for therapeutic agents for asthma and allergic rhinitis. Ketotifen fumarate is used as a chemical mediator release suppressor for asthma, allergic rhinitis, eczema, dermatitis, urticaria, dermal pruritis and allergic conjunctivitis.
During the period from the antigen application day to the start of the dosing of the test compound, in place of the test compound, only the solvent was orally administered at 10 mL/kg once a day.
FIGS. 4 to 6 show the results of each measurement.

The test system is the same in data set [5]. Particulars: mouse, in vivo, po.
Method: Using a triphase dermatitis model that can be induced by antigen in mouse passively sensitizationed with IgE, the actions of CB2 inverse agonist and CB2 agonist were examined.
*Animal: 8 to 10 weeks-old Female BALB/c mouse (Japan SLC Inc.) was used.
Preparation of solvent: MC was dissolved in distilled water to prepare an aqueous 0.5% MC solution.
Anti-DNP IgE (antibody against DNP; Yamasa Corp.) was prepared to 15 μg/mL with physiological saline. 0.2 mL of the resulting solution was given through the caudal vein to the mouse.
Antigen preparation: 0.15% (w/v) of DNFB (2,4-dinitrofluorobenzene) was prepared in a mixed solution of acetone and olive oil (3:1, v/v) on needed basis.
Antigen application: 25 μl of the antigen solution was applied on each side of both of the ears 24 hours after the administration of the anti-DNP IgE.
From the next day of the antigen application to day 8 after the antigen application, 10 mL/kg test compound was orally administered once a day 9 times in total. On the day of antigen application, the test compound was administered one hour before the antigen application and the test compound was administered one hour before the measurement of the thickness of the ear on day 8 after the antigen application.
Before and 8 days after the antigen application, the thickness of the ear was measured with a dial thickness gauge (Mitutoyo Corp.). The difference between the value measured before the antigen application and at each time point was used as an index of swelling.
After the measurement of ear swelling, spleen and thymus were harvested to weigh their wet weights.

For orientation: IC50 means the concentration that inhibits the measured activity by half. Turning to `CCCCCOc1c(OC)ccc2cc(C(=O)NCc3ccc4c(c3)OCO4)c(=O)[nH]c12` [Compound A, N-(benzo[1,3]dioxol-5-ylmethyl)-7-methoxy-2-oxo-8-pentyloxy-1,2-dihydroquinoline-3-carboxamide], the “effect on agonistic action of 2-AG-E” value on CB2 [1] is on record as “suppress the agonistic action of 2-AG-E”. In addition, the cAMP production relative to control at 0.1 µM at CB2 [1] (CHO, read-out: Amount of cAMP production compared to control (ratio (%))) stood at 430%. Also, the “forskolin-stimulated cAMP production” value at CB2 [2] was “elevate the production of cyclic adenosine-phosphate (cAMP)”. Further, the “production of leukotrienes (C4/D4/E4)” value in the data set on human basophils is recorded as “suppressive action”. Further, the “leukotriene production (C4/D4/E4)” value in data set [3] is listed as “suppressive effect”. Further, on CB1, the IC50 is 3.44 µM. Also, the “ear swelling, late phase” value in data set [4] (24 hours after antigen application) is “significantly suppressed ear swelling”. In addition, the “ear swelling, very late phase” value in data set [4] (8 days after antigen application) was “significantly suppressed ear swelling”. Further, the “ear swelling, very late phase, delayed start of dosing” value in data set [4] (administration started after the induction of the late phase) is “effect of compound A in the very late phase was observed”. For the same compound, the “ear swelling, early phase” value in data set [4] (one hour after antigen application) was “significantly suppressed ear swelling”. Moreover, in data set [5], the “wet weight of the spleen” value is on record as “no apparent changes” and the “wet weight of the thymus” value is reported as “no apparent changes”.
